Test results from patent US20100093642A1, “NOVEL POLYPEPTIDES” (priority 2006, published 2010).
≈ marks a conversion by molar mass, not a printed value. Where two headings read alike, the source gives them in different places. No end group written: not given here.

Assays:
[1] = system: human breast malignant carcinoma cell line MCF-7; type: cell-based; settings: 24 hours, maximum 200 μg/ml
Procedure: (§1) The cytotoxic effects of the peptides on different human tumour cells were measured using the MTT colorimetric assay (Mosmann, 1983). […] Dissolved MIT is converted to an insoluble purple formazan by cleavage of the tetrazolium ring by dehydrogenase enzymes. This water insoluble formazan can be solubilized using isopropanol or other solvents and the dissolved material is measured spectrophotometrically. The absorbance was measured as a function of concentration of converted dye. The conversion of the soluble dye to the insoluble purple formazan is utilized in assays for measurement of cell proliferation. […] We used this assay to measure the degree of cell death caused by the peptides. MCF-7 was maintained in EMEM, A2058 in DMEM and […]-29 in RPMI-1640 medium supplemented with 10% heat inactivated […] and 1% L-glutamine-L-alanine in a humidified atmosphere of 5% CO2 at 37° C. The human embryonic fibroblast cell line, MRC-5 (which is normal fibroblasts), was cultured as a monolayer in MEM medium, under the same conditions as described for the tumour cell lines. Cells to be used in the assay were grown to a minimum of 75% confluency, trypsinated and split to single cell suspension, counted and centrifuged at 1500 rpm for 10 min. The cell pellet was resuspended to a concentration of 2×10^5 cells/ml (HT-29) or 1×10^5 (MRC-5, MCF7 and A2058) in DMEM without FBS and L-glutamine-L-alanine (assay-medium). All cell lines were routinely tested for mycoplasma infection using a PCR-based mycoplasma detection kit (MycoSensor PCR Assay Kit, Stratagene), following the supplier's instructions. All cell lines were mycoplasma free. The cytotoxicity was measured using the MTT method (Mosmann, 1983), with minor modifications. Different human tumour cells (1-2×10^5) were applied in 96-well culture plates in a volume of 100 μl DMEM medium and incubated at 37° C. for 24 hours. The medium was removed and the cells were treated with 100 μl of peptide solution (concentrations ranging from 0 to 200 μg/ml), diluted in a) RPMI-1640 medium supplemented with 5% heat inactivated FBS, or b) RPMI-1640 medium without FBS. The plates were incubated at 37° C. for 24 hours. Cells treated with Triton X-100 (1%) was used as positive control (100% killing) whereas cells plus medium only were used as negative control. […] A volume of 70 μl of the supernatant was then removed and […] (0.04 M HCl in isopropanol) added to each well. The plate was placed on a shaker for 1 hour at room temperature and read spectrophotometrically at 590 nm in a microtiter plate reader (DTX880 Multimode Detector, Beckman Coulter).

[2] = system: human colorectal adenocarcinoma cell line HT-29; type: cell-based; settings: 24 hours, maximum 200 μg/ml
Procedure: as §1

[3] = system: human embryonic lung fibroblast cell line MRC-5; type: cell-based; settings: normal fibroblasts, 24 hours, maximum 200 μg/ml
Procedure: as §1

[4] = system: human skin malignant melanoma cell line A2058; type: cell-based; settings: 24 hours, maximum 200 μg/ml
Procedure: as §1

[5] = system: L. anguillarum; type: cell-based, Listonella (Vibrio) anguillarum; settings: lowest concentration causing optical density less than 50% of growth control
Procedure: (§2) The Gram-negative bacteria Listonella (Vibrio) anguillarum, serotype O2 (FT 1801, also coded as AL 104/LFI 6004), originally isolated from Atlantic salmon by staff of the Norwegian Veterinary Institute (Oslo, Norway), Escherichia con (ATCC 25922), and the Gram-positive bacteria Staphylococcus aureus (ATCC 9144) and Corynebacterium glutamicum (ATCC 13032) were used as test organisms. All isolates were grown at room temperature in Mueller Hinton Broth (MBB; Difco Laboratories, Detroit, U.S.A).
(§3) The antibacterial activities of the obtained HPLC fractions were determined by continuous monitoring of bacterial growth with a Bioscreen C microbiology reader (Labsystems Oy, Helsinki, Finland). The test was performed in 100-well flat-bottomed honeycomb plates, in which […] of test fractions were incubated with 50 μl of a suspension of an actively growing culture of bacteria diluted to a starting concentration of 5×10^3 cells per well. The growth chamber was maintained at 20° C. during the incubation period. The absorbance was measured at 2 h intervals for 48 h by a turbidometric method with vertical light photometry and a wide band filter (420-580 nm), which is more insensitive to colour change in the sample compared to single wavelength detection. Cecropin P1(0.5 μg/ml) was used as a positive control during these experiments. Antibacterial activity was determined when the optical density (OD) of the growth control (bacteria plus water) reached an absorbance of approximately 0.3. Fractions were regarded as active when the OD was less than 50% of the growth control.
(§4) The polypeptides of the present invention were isolated and subsequently tested for activity. A serial dilution method was employed to examine the antibacterial activity of the peptides. Two Gram-negative bacteria, L. anguillarum and E. coli, and two Gram-positive bacteria, C. glutamicum and S. aureus, were chosen as test bacteria. The polypeptides of the present invention were active against both Gram-positive and Gram-negative bacteria (table 4).

[6] = system: E. coli; type: cell-based, Escherichia coli; settings: lowest concentration causing optical density less than 50% of growth control
Procedure: as §2, §3, §4

[7] = system: C. glutamicum; type: cell-based, Corynebacterium glutamicum; settings: lowest concentration causing optical density less than 50% of growth control
Procedure: as §2, §3, §4

[8] = system: S. aureus; type: cell-based, Staphylococcus aureus; settings: lowest concentration causing optical density less than 50% of growth control
Procedure: as §2, §3, §4

[9] = system: Acinetobacter baumannilii, K15-9; type: cell-based; settings: clinical isolate; 37° C.; 3×10^6 cells per ml
Procedure: (§5) The antibacterial activities of the different peptides were determined by continuous monitoring of bacterial growth with a Bioscreen C microbiology reader (Labsystems Oy, Helsinki, Finland). The test was performed in 100-well flat-bottomed honeycomb plates, in which 50 μl of test fractions were incubated with 50 μl of a suspension of an actively growing culture of bacteria diluted in Mueller Hinton medium to a starting concentration of 3×10^4 cells per ml. The Gram-negative bacteria, Listonella (Vibrio) anguillarum, serotype O2 (FT 1801, a fish pathogenic strain), Pseudomonas aeruginosa and E. coli (ATCC 25922), and the Gram-positive bacteria, C. glutamicum (ATCC 13032) and S. aureus (ATCC 9144), were chosen as test bacteria. The growth chamber was maintained at either 20 or 37° C. during the incubation period. The absorbance was measured at 2 h intervals for 48 h by a turbidometric method with vertical light photometry and a wide band filter (420-580 nm), which is more insensitive to color change in the sample compared to single wavelength detection. Antibacterial activity was determined when the optical density (OD) of the growth control (bacteria plus water) reached an absorbance of 0.3-0.4. Fractions were regarded as active when the OD was less than 50% of the growth control. Polymyxin B (Sigma, St. Louis, Mo., USA), Lactoferricin B, Cecropin P1 and Hyalophora cecropia Cecropin B were used as reference.
(§6) The antimicrobial molecules were also tested against drug resistant clinical isolates, such as the commonly encountered multi-resistant human pathogen S. aureus (MRSA) K15-64 and the glycopeptide (vancomycin)-resistant Enterococccus faecium (GREF) K9-28. The non-clinical isolates Escherichia coli (ATCC 25922), Pseudomonas aeruginosa (ATCC 27853), Corynebacterium glutamicum (ATCC 13032), and Staphylococcus aureus (ATCC 9144) were also tested for comparison. Serial dilutions of synthetic peptides were made in double distilled water and tested according to the method described above. However, in these experiments the starting concentration of bacteria were 3×10^6 cells per ml and the temperature in the growth chamber was 37° C. Polymyxin B was used as positive control for the Gram-negative bacteria.

[10] = system: Citrobacter freundii, K15-75; type: cell-based; settings: clinical isolate; 37° C.; 3×10^6 cells per ml
Procedure: as §5, §6

[11] = system: Escherichia coli, K15-58; type: cell-based; settings: clinical isolate; 37° C.; 3×10^6 cells per ml
Procedure: as §5, §6

[12] = system: Klebsiella K15-72; type: cell-based; settings: clinical isolate; 37° C.; 3×10^6 cells per ml
Procedure: as §5, §6

[13] = system: Pseudomonas K15-60; type: cell-based; settings: clinical isolate; 37° C.; 3×10^6 cells per ml
Procedure: as §5, §6

[14] = system: Salmonella K14-40; type: cell-based; settings: clinical isolate; 37° C.; 3×10^6 cells per ml
Procedure: as §5, §6

[15] = RPMI-1640 medium containing 5% FBS

Compound | Antitumoral activity IC50, MCF-7 [1, 15] | Antitumoral activity IC50, MCF-7 ([1]; serum-free RPMI-1640 medium) | Antitumoral activity IC50, HT-29 [2, 15] | Antitumoral activity IC50, HT-29 ([2]; serum-free RPMI-1640 medium) | IC50, MRC-5 [3, 15] | IC50 ([3]; serum-free RPMI-1640 medium, read-out: IC50, MRC-5) [µM] | Antitumoral activity IC50, A2058 [4, 15] | IC50 ([4]; serum-free RPMI-1640 medium, read-out: Antitumoral activity IC50, A2058) [µM] | Minimal inhibitory concentration (MIC), L. anguillarum [5] [µM] | Minimal inhibitory concentration (MIC), E. coli [6] [µM] | Minimal inhibitory concentration (MIC), C. glutamicum [7] [µM] | Minimal inhibitory concentration (MIC), S. aureus [8] [µM] | Minimal inhibitory concentration, Acinetobacter baumannilii, K15-9 [9] [µM] | Minimal inhibitory concentration, Citrobacter freundii, K15-75 [10] [µM] | Minimal inhibitory concentration, Escherichia coli, K15-58 [11] [µM] | Minimal inhibitory concentration, Klebsiella K15-72 [12] [µM] | Minimal inhibitory concentration, Pseudomonas K15-60 [13] [µM] | Minimal inhibitory concentration, Salmonella K14-40 [14] [µM]
NC(Cc1c[nH]c2cc(Br)ccc12)C(=O)O [6-D/L-Br-Trp, 6-Bromo-D/L-tryptophan, reference compound] | * (The symbol “*” denotes 30-50% killing at the highest concentration tested.) | * (The symbol “*” denotes 30-50% killing at the highest concentration tested.) | * (The symbol “*” denotes 30-50% killing at the highest concentration tested.) | * (The symbol “*” denotes 30-50% killing at the highest concentration tested.) | * (The symbol “*” denotes 30-50% killing at the highest concentration tested.) | 584 | * (The symbol “*” denotes 30-50% killing at the highest concentration tested.) | 655 |  |  |  |  |  |  |  |  |  | 
P20: dimeric polypeptide from S. droebachiensis coelomocytes: first monomer SEQIDNO7, second monomer SEQIDNO8 (chain 1 SXFSRTVHNVGNAVRKGIHAGQGVCSGLGL; chain 2 DLRAICAGAHAL; not fully specified (bridges); X: residue not identified in the source; cysteine pairing not given here; also: heterodimer of two chains; listed as Strongylocentrotus droebachiensis) [Peptide P20] |  |  |  |  |  |  |  |  | 2.5 | 2.5 | 1.3 | 5.0 |  |  |  |  |  | 
Polymyxin B [reference compound] |  |  |  |  |  |  |  |  | 0.8 | 0.8 | 1.6 | 6.3 | 0.78 | 0.78 | 3.12 | 6.25 | 3.12 | 3.12
CC[C@H](C)[C@@H]1NC(=O)[C@H](CO)NC(=O)[C@@H]2CCCN2C(=O)[C@H](C)NC(=O)CNC(=O)[C@H](CC(C)C)NC(=O)[C@H](CCCCN)NC(=O)[C@H](CCCCN)NC(=O)[C@H](CCSC)NC(=O)[C@H](CCCNC(=N)N)NC(=O)[C@H](Cc2c[nH]c3ccccc23)NC(=O)[C@H](CCC(N)=O)NC(=O)[C@H](Cc2c[nH]c3ccccc23)NC(=O)[C@H](CCCNC(=N)N)NC(=O)[C@H](CCCNC(=N)N)NC(=O)[C@@H](NC(=O)[C@H](CCCCN)NC(=O)[C@@H](N)Cc2ccccc2)CSSC[C@@H](C(=O)N[C@H](C(=O)N[C@@H](CCCNC(=N)N)C(=O)N[C@@H](CCCNC(=N)N)C(=O)N[C@@H](C)C(=O)N[C@@H](Cc2ccccc2)C(=O)O)C(C)C)NC(=O)[C@H]([C@@H](C)O)NC1=O [Lactoferricin B] |  |  |  |  |  |  |  |  | 3.1 (≈ 9.68 µg/mL) | 3.1 (≈ 9.68 µg/mL) | 1.6 (≈ 5 µg/mL) | 6.3 (≈ 19.7 µg/mL) |  |  |  |  |  | 
